From patent US10479789B2, “Pyrido[1,2-A]pyrimidone analog, crystal form thereof, intermediate thereof and preparation method therefor” (Chia Tai Tianqing Pharmaceutical Group Co., Ltd., priority 2015, dated 2019)

Assays:
[1] = system: human gastric cancer ST-02-0013; test: In vivo pharmacodynamics, subcutaneous xenograft tumor model of human gastric cancer ST-02-0013; set-up: species or system BALB/c nude mice
Procedure: (§1) The studies were conducted to examine if the test drugs have in vivo efficacy in the human colon cancer CO-04-0032 animal model and the gastric cancer ST-02-0013 animal model. The descriptions about the animal feeding, feed ingredients, experimental observation, experimental indexes, experimental termination, as well as data analysis in the tests were as follows:
(§2) Animal Grouping: The animals were weighed and the tumor volume was measured prior to administration. The animals were randomly grouped according to tumor volume (randomized block design).
(§3) Experimental Indexes: The experimental indexes were used to examine whether tumor growth is inhibited, delayed or cured. Tumor diameter was measured twice a week with a vernier caliper. The tumor volume was calculated by the formula: V=0.5a×b^2, wherein a and b represent the long diameter and short diameter of a tumor, respectively. Tumor growth inhibition (TGI) of a compound was evaluated with T-C (day) and T/C (%). […]
(§4) Data Analysis: One-way ANOVA was used for comparison of three or more groups. […] All data was analyzed using SPSS 17.0. p<0.05 indicated a significant difference. […]

[2] = system: human colon cancer CO-04-0032; test: In vivo pharmacodynamics, subcutaneous xenograft tumor model of human colon cancer CO-04-0032; set-up: species or system BALB/c nude mice
Procedure: as §1, §2, §3, §4

PI3Kα = PI3Kα (Homo sapiens, UniProt P42336); test: ADP-Glo Assay II, PI3Kα; assay type: biochemical; settings: read-out: IC50 for inhibition of PI3Kα activity
Sequence of PI3Kα (P42336 whole entry): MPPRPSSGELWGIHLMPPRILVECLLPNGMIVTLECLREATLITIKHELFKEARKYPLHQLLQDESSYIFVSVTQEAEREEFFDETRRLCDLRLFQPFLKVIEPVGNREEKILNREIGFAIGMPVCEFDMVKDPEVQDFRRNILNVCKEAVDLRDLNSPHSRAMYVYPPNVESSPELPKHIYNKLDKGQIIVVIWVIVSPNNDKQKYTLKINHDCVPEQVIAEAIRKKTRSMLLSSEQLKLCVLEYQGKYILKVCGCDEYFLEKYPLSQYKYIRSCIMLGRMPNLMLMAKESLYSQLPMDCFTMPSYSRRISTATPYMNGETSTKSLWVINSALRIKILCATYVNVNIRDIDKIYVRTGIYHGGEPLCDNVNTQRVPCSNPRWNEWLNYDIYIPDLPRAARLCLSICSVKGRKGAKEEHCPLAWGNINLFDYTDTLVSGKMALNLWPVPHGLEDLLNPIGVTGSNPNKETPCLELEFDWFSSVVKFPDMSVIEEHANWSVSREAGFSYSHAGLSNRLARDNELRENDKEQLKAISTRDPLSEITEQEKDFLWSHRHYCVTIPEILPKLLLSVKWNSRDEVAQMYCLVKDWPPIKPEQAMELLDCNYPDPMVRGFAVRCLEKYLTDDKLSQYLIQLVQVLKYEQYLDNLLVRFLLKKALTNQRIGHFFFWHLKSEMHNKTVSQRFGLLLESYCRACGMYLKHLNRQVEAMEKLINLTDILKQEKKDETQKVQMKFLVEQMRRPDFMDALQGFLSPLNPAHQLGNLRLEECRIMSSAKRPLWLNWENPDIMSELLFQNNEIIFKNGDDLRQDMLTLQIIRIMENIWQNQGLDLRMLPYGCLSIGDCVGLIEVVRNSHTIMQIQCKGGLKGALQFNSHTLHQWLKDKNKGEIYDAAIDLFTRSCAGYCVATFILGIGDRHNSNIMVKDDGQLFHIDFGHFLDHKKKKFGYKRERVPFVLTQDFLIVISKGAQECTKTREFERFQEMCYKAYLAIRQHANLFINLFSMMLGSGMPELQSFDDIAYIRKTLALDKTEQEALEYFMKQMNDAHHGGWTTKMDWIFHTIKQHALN
Sequence of PI3Kα (P27986 whole entry partner): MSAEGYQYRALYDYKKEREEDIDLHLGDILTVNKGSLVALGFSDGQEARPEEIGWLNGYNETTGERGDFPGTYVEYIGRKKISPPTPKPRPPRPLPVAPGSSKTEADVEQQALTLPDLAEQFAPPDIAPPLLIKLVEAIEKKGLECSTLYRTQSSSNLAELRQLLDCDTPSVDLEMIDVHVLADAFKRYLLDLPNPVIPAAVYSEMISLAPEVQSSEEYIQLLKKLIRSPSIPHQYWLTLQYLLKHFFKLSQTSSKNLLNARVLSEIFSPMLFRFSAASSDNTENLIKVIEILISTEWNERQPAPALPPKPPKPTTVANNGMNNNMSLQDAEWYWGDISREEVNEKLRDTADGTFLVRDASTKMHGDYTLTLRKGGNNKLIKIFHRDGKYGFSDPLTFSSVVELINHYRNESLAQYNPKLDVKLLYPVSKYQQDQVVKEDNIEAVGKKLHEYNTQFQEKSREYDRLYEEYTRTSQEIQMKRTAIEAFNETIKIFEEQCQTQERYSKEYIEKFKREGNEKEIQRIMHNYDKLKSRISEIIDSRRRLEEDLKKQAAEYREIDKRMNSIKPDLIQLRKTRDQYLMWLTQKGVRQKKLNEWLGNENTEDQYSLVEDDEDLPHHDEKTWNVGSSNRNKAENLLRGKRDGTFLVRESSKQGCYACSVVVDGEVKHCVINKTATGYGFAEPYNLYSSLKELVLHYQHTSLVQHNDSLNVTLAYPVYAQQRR
Procedure: (§5) 1) The compound was diluted using Echo from Labcyte company, 50 nL of the compound was transferred into an assay plate, and centrifuged at a speed of 1000 rpm for 10 sec.
(§6) 2) A kinase/lipid substrate mixed solution and a kinase reaction buffer/lipid substrate mixed solution were prepared; the kinase/lipid substrate mixed solution was added into columns 3-24 of the assay plate, 3 μL per well; the kinase reaction buffer/lipid substrate mixed solution was added into columns 1-2 of the assay plat, 3 μL per well; and the plate was centrifuged at a speed of 1000 rpm for 10 sec.
(§7) 3) An ATP solution was prepared, and added into the assay plate, 2 μL per well; the plate was centrifuged at a speed of 1000 rpm for 10 sec, shaken and mixed in 2nd gear mode on a plate shaker for 1 min, further centrifuged at a speed of 1000 rpm for 10 sec, and incubated for 120 min at 23° C. […]
(§8) 5) A kinase detection reagent was prepared, added into the assay plate, 10 μL per well; the plate was centrifuged at a speed of 1000 rpm for 10 sec, shaken and mixed in 2nd gear mode on a plate shaker for 1 min, further centrifuged at a speed of 1000 rpm for 10 sec, incubated for 30 min at 23° C.; and then read on the multi-marker detector Envision.
(§9) IC50 results were analyzed by XLfit5 (Formula 205) of IDBS company.

PI3Kβ = PI3Kβ (Homo sapiens, UniProt P42338); test: ADP-Glo Assay II, PI3Kβ; assay type: biochemical; settings: read-out: IC50 for inhibition of PI3Kβ activity
Sequence of PI3Kβ (P42338 whole entry): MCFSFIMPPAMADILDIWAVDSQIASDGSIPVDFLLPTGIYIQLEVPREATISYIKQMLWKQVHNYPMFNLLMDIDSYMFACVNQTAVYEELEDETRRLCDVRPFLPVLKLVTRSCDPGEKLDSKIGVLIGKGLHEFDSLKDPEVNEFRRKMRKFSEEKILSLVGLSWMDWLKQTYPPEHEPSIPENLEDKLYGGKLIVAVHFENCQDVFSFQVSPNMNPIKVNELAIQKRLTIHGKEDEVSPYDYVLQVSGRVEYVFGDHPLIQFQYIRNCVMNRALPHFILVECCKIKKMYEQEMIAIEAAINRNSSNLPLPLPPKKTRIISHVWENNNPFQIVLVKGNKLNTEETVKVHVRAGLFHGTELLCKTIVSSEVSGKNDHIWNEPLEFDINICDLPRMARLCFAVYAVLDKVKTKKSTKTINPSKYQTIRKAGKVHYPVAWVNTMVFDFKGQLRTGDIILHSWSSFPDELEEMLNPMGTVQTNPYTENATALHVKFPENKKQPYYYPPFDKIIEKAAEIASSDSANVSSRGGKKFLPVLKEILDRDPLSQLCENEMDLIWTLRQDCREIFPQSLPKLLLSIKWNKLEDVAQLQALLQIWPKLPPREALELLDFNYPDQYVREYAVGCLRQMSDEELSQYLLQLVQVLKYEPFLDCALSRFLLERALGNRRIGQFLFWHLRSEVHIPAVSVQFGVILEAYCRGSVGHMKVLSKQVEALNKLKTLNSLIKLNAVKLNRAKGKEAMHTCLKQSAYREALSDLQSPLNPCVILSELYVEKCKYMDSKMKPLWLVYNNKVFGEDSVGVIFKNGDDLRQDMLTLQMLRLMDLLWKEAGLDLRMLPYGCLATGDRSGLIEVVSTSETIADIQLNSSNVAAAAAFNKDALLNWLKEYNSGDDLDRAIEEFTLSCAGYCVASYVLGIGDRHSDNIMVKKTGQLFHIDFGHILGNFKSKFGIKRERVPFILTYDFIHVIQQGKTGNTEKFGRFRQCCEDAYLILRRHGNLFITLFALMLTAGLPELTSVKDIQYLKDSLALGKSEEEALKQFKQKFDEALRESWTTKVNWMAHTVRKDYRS
Sequence of PI3Kβ (P27986 whole entry partner): as the sequence (P27986 whole entry partner) above
Procedure: as §5, §6, §7, §8, §9

PI3Kγ = PI3Kγ (Homo sapiens, UniProt P48736); test: ADP-Glo Assay II, PI3Kγ; assay type: biochemical; settings: read-out: IC50 for inhibition of PI3Kγ activity
Sequence of PI3Kγ (P48736 whole entry): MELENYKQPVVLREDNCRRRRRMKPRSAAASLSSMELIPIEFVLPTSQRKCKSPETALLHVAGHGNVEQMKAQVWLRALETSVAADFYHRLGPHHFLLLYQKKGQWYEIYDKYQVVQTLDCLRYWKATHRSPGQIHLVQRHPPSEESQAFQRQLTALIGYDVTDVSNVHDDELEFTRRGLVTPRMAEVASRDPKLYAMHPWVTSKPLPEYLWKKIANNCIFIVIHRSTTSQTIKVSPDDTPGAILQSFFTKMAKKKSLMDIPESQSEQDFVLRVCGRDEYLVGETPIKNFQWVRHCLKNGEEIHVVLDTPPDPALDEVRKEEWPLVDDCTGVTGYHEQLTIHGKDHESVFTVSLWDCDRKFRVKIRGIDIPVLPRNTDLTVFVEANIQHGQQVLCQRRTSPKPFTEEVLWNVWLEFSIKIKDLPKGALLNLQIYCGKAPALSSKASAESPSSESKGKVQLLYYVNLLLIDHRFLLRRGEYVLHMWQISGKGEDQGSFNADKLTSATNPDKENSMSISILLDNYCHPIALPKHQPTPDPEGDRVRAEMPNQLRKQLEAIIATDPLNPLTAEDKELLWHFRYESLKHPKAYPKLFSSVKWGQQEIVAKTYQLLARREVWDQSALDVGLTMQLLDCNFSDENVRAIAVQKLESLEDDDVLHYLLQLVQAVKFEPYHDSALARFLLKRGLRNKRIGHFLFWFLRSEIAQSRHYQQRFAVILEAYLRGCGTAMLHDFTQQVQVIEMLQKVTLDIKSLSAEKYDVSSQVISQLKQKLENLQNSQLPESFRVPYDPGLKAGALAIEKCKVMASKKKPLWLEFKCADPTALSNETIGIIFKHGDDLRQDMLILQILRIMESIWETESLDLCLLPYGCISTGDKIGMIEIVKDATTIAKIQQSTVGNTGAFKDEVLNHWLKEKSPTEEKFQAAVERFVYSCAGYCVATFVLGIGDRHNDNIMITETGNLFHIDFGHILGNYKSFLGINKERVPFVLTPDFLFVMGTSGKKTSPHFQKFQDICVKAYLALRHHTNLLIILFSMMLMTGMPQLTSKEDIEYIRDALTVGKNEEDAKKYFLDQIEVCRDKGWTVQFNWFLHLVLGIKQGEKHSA
Procedure: as §5, §6, §7, §8

Compound: COc1ncc(-c2ccc3ncc(OCCN(C)C)c(=O)n3c2)cc1NS(=O)(=O)c1ccc(F)cc1Cl [Compound 1]
- increase in tumor volume ([1]; from day 15 to day 30 of the administration, ST-02-0013): almost no increase in tumor volume
- anti-tumor activity compared to the positive control drug BKM120 ([1]; gastric cancer ST-02-0013): more excellent anti-tumor activity
- anti-tumor activity compared to the positive control drug BKM120 ([2]; colon cancer CO-04-0032): more excellent anti-tumor activity
- increase in tumor volume ([2]; from day 15 to day 30 of the administration, CO-04-0032): almost no increase in tumor volume
- IC50 (PI3Kα): 0.6 ± 0.2 nM
- IC50 (PI3Kβ): 9.9 ± 2.7 nM
- IC50 (PI3Kγ): 7 ± 0.9 nM
